Reference: PubChem BioAssay (NCI)
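Grown in 96-well plates, cells were treated for 48 hours with each compound at five concentrations. Insufficient inhibition: endpoint recorded as highest concentration tested. Here, GI50 denotes the concentration required for 50% inhibition of growth. TGI: concentration producing complete growth inhibition.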

Tests used:
Test in all cases: NCI-60 cell line screen, 48 h
NCI-H226 lung = system: NCI-H226 lung
SK-MEL-28 melanoma = system: SK-MEL-28 melanoma
NCI-H460 lung = system: NCI-H460 lung
NCI-H522 lung = system: NCI-H522 lung
SF-539 CNS = system: SF-539 CNS
MDA-MB-435 = system: MDA-MB-435
HOP-62 NSCLC = system: HOP-62 NSCLC
HCT-116 colon = system: HCT-116 colon
HOP-92 NSCLC = system: HOP-92 NSCLC
BT-549 breast = system: BT-549 breast
COLO 205 colon = system: COLO 205 colon
HL-60(TB) leukemia = system: HL-60(TB) leukemia
K-562 leukemia = system: K-562 leukemia
UO-31 renal = system: UO-31 renal
CAKI-1 renal = system: CAKI-1 renal
RPMI-8226 leukemia = system: RPMI-8226 leukemia
OVCAR-4 ovarian = system: OVCAR-4 ovarian
786-0 renal = system: 786-0 renal
HCC-2998 colon = system: HCC-2998 colon
HCT-15 colon = system: HCT-15 colon
MOLT-4 leukemia = system: MOLT-4 leukemia
NCI/ADR-RES ovarian = system: NCI/ADR-RES ovarian
MCF7 breast = system: MCF7 breast
SF-295 CNS = system: SF-295 CNS
SK-OV-3 ovarian = system: SK-OV-3 ovarian
HT29 colon = system: HT29 colon
SNB-19 CNS = system: SNB-19 CNS

COc1ccc2c(CCC(c3ccccc3)c3ccccc3)c3[n+](cc2c1OC)CCc1cc2c(cc1-3)OCO2
GI50 (NCI-H226 lung): 1560 nM
TGI (NCI-H226 lung): 5330 nM
GI50 (SK-MEL-28 melanoma): 462 nM
TGI (SK-MEL-28 melanoma): 2060 nM
GI50 (NCI-H460 lung): 12.3 nM
TGI (NCI-H460 lung): 1030 nM
GI50 (NCI-H522 lung): 122 nM
TGI (NCI-H522 lung): 858 nM
GI50 (SF-539 CNS): 846 nM
TGI (SF-539 CNS): 3670 nM
GI50 (MDA-MB-435): 143 nM
TGI (MDA-MB-435): 1410 nM
GI50 (HOP-62 NSCLC): 546 nM
TGI (HOP-62 NSCLC): 1800 nM
GI50 (HCT-116 colon): 202 nM
TGI (HCT-116 colon): 1270 nM
GI50 (HOP-92 NSCLC): 150 nM
TGI (HOP-92 NSCLC): 596 nM
GI50 (BT-549 breast): 268 nM
TGI (BT-549 breast): 1350 nM
GI50 (COLO 205 colon): 83.1 nM
TGI (COLO 205 colon): 619 nM
GI50 (HL-60(TB) leukemia): 82.2 nM
TGI (HL-60(TB) leukemia): 526 nM
GI50 (K-562 leukemia): 327 nM
TGI (K-562 leukemia): 3010 nM
GI50 (UO-31 renal): 3200 nM
TGI (UO-31 renal): 13300 nM
GI50 (CAKI-1 renal): 3940 nM
TGI (CAKI-1 renal): 16100 nM
GI50 (RPMI-8226 leukemia): 50.7 nM
TGI (RPMI-8226 leukemia): 1720 nM
GI50 (OVCAR-4 ovarian): 271 nM
TGI (OVCAR-4 ovarian): 1510 nM
GI50 (786-0 renal): 1090 nM
TGI (786-0 renal): 2500 nM
GI50 (HCC-2998 colon): 326 nM
TGI (HCC-2998 colon): 1930 nM
GI50 (HCT-15 colon): 2280 nM
TGI (HCT-15 colon): 7430 nM
GI50 (MOLT-4 leukemia): 381 nM
TGI (MOLT-4 leukemia): 3040 nM
GI50 (NCI/ADR-RES ovarian): 13100 nM
TGI (NCI/ADR-RES ovarian): 55700 nM
GI50 (MCF7 breast): 483 nM
TGI (MCF7 breast): 3220 nM
GI50 (SF-295 CNS): 732 nM
TGI (SF-295 CNS): 3990 nM
GI50 (SK-OV-3 ovarian): 593 nM
TGI (SK-OV-3 ovarian): 1740 nM
GI50 (HT29 colon): 139 nM
TGI (HT29 colon): 1310 nM
GI50 (SNB-19 CNS): 242 nM
